# Assay results: patent US20240400572A1, “COMPOUNDS AND METHODS FOR TREATING CANCERS THAT ARE MGMT DEFICIENT REGARDLESS OF MMR STATUS” (Yale University, priority 2021, published 2024)
# pIC50: −log10 of the molar value.
# How the values were obtained:
# LN229 MGMT−/MMR− cells = test: Short-term cell viability assay; format: cell-based, human; details: Homo sapiens, LN-229
# Description: (§1) Short-term Cell Viability Assay. Cells were seeded in 96-well plates at 1000 or 2000 cells/well and allowed to adhere at 23° C. for 60 min and then incubated overnight at 37° C. Cells were treated with indicated concentrations of compounds in triplicate for 4-6 days prior to fixation with 3.7% paraformaldehyde and nuclear staining with 1 μg/mL Hoechst 33342 dye. Cells were imaged on a Cytation 3 imaging reader (BioTek) and quantified using CellProfiler software.
# Statistical analysis. Statistical analysis was performed using GraphPad Prism software. Data are presented as mean or median±SD or SEM as indicated. For in vitro short-term growth delay experiments, IC50 values were determined from the nonlinear regression equation, [inhibitor] vs normalized response with variable slope. […]
# We synthesized the imidazotetrazine 4a (KL-50) and the triazene 4b (KL-85), as vehicles to deliver 2-fluoroethyl diazonium (4c), and a series of related agents to probe structure-activity relationships in tissue culture (FIG. Z1, D and F). […] We evaluated the cytotoxicity of our compounds in short-term cell viability assays against four isogenic LN229 glioblastoma cell lines engineered to be proficient or deficient in MGMT and/or MMR activity, using short hairpin RNAs (shRNAs) targeting MSH2 (referred to as MGMT+/−, MMR+/− cells hereafter; FIG. ZS2A). […]
# [1] = tested on: WT and XPA-deficient MEFs; test: Short-term cell viability assay in NER isogenic MEFs; format: cell-based, mouse; details: WT versus XPA-deficient MEFs, ± MGMT depletion with O6BG
# Description: FIGS. ZS5A-ZS5D. […] Columns, mean; error bars, SD; n=2 independent analyses. For (FIG. ZS5A) and (FIG. ZS5C), points, mean; error bars, SD; n=3 technical replicates.
# as §1
# [2] = tested on: linearized pUC19 plasmid DNA; test: Melting temperature assay; format: biochemical; details: 100 or 500 μM for 3 h
# Description: Melting Temperature Assay. Linearized pUC19 DNA (750 ng), prepared as described above, was incubated with the indicated concentration of either MMS or KL-50 (4a) adjusted in a final volume of 18 μL in 100 mM Tris buffer (pH 7.4) for 3 h. Drug stock concentrations were made in DMSO such that each reaction contained a fixed 5% DMSO concentration. Afterwards, 1 μL each of 20× SYBR Green dye (Invitrogen) and 20× ROX reference dye (Invitrogen) was added and melting temperature analysis was run on a StepOnePlus RT PCR System (Applied Biosciences) to generate melting temperature curves.
# [3] = tested on: PEO4 (BRCA2+) and PEO1 (BRCA2−/−) cells; test: Short-term cell viability assay in PEO1/4 model; format: cell-based, human
# Description: (§2) FIGS. Z4A-Z4I. KL-50 (4a) activates DNA damage response pathways and cycle arrest in MGMT− cells, independent of MMR, and induces sensitivity in cells deficient in ICL or HR repair. (FIGS. Z4A, Z4B, and Z4C) Phospho-SER139-H2AX (γH2AX) (A), 53BP1 (FIG. Z4B), and phospo-SER33-RPA2 (pRPA) (FIG. Z4C) foci formation quantified by % cells with 10 foci in LN229 MGMT+/−, MMR+/− cells treated with 0.1% DMSO control, 20 μM KL-50 (4a), or 20 μM TMZ (1a) for 48 h. Columns, mean; error bars, SD; n≥5 technical replicates. Additional time course data is presented in FIG. ZS6B to D. (FIG. Z4D) Representative foci images of data in (FIG. Z4A) to (FIG. Z4C). (FIG. Z4E) Percentage of cells in G1, S, and G2 cell cycle phases after treatment as in (A) to (C), measured using integrated nuclear (Hoechst) staining intensity. Columns, mean; error bars, SD; n=3 independent analyses. (FIG. Z4F) Change in percent cells with 1 micronuclei from baseline (DMSO control) after treatment as in (FIG. Z4A) to (FIG. Z4C). Columns, mean; error bars, SD; […] technical replicates; **** p<0.0001; ns, not significant. Additional validation is presented in FIG. ZS9, A and B. (FIG. Z4G) Short-term viability assay curves for KL-50 (4a) in PD20 cells, deficient in FANCD2 (FANCD2−/−) or complemented with FANCD2 (+FANCD2). (FIG. Z4H) Short-term viability assay curves for KL-50 (4a) in PEO4 (BRCA2+) and PEO1 (BRCA2−/−) cells pre-treated with 0.01% DMSO control or 10 μM O^6BG (+O^6BG) for 1 h prior to KL-50 (4a) addition. (FIG. Z4I) Short-term viability assay curves for KL-50 (4a) in DLD1 BRCA2+/− and BRCA2−/− cells pre-treated with 0.01% DMSO control or 10 μM O^6BG (+O^6BG) for 1 h prior to KL-50 (4a) addition. For (FIG. Z4G), (FIG. Z4H), and (FIG. Z4I), points, mean; error bars, SD; n=3 technical replicates.
# as §1
# [4] = tested on: DLD1 BRCA2+/− and BRCA2−/− cells; test: Short-term cell viability assay in DLD1 isogenic model; format: cell-based, human
# Description: as §2, §1
# [5] = Maximum tolerated dose study; format: in vivo
# Description: Healthy mice were treated with escalating doses of KL-50 (4a) (0, 25, 50, 100, and 200 mg/kg×1 dose), and monitored over time for changes in both weights and hematologic profiles. […] As the main dose limiting systemic toxicity of TMZ (1a) is myelosuppression, we measured complete blood counts for all mice on day 0 before treatment and subsequently on day 7 after drug administration.
# [6] = tested on: O^6-guanine adducts in cellular DNA; details: dose of 20 μM; cited from earlier work
SMILES,pIC50 (LN229 MGMT−/MMR− cells),sensitivity of XPA deficient cells (in words) [1],change in DNA melting temperature (in words) [2],"therapeutic index (TI) ([3]; PEO1/4 model, ratio of IC50 values)","sensitivity of BRCA2-deficient cells (in words) ([3]; PEO1 versus PEO4, ± 10 μM O^6BG)","sensitivity of BRCA2-deficient cells (in words) ([4]; DLD1 BRCA2−/− versus BRCA2+/−, ± 10 μM O^6BG)",therapeutic index (TI) ([4]; ratio of IC50 values in MGMT+/BRCA2+ cells compared to MGMT−/BRCA2− cells),mice observably ill warranting euthanasia ([5]; 200 mg/kg × 1 dose),"weight loss ([5]; 100 or 200 mg/kg × 1 dose, regressed to baseline at the end of one week)",toxicity in the remaining cohorts (in words) ([5]; cohorts below 200 mg/kg × 1 dose),"complete blood counts (in words) ([5]; day 7 after drug administration, all cohorts)","tolerability (in words) ([5]; healthy mice, 0, 25, 50, 100, and 200 mg/kg × 1 dose)",O^6MeG (3) adducts per cell [6]
"NC(=O)c1ncn2c(=O)n(CCF)nnc12 [KL-50, 3-(2-fluoroethyl)-4-oxo-3H,4H-imidazo[4,3-d][1,2,3,5]tetrazine-8-carboxamide]",~4.70,absence of additional sensitivity,comparable changes in measured DNA melting temperature,62 fold,BRCA2 loss enhanced the toxicity,BRCA2 loss enhanced the toxicity,~600 fold,Two of three mice,greater than 10%,no evidence of toxicity,within normal physiological ranges,well-tolerated,–
"Cn1nnc2c(C(N)=O)ncn2c1=O [TMZ, temozolomide, reference compound]",–,–,–,–,–,–,–,–,–,–,–,–,"20,600"
